From ChEMBL document CHEMBL1201862, “PubChem BioAssay data set” (2004)
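Where inhibition never reached the appropriate level, the endpoint shown equals the highest concentration tested. Otherwise, values were interpolated linearly from a five-concentration, 48-hour dose response in 96-well plates. GI50 marks 50% less growth.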 The source made the active and inactive calls. Cut-off read from the data, not from the text of the source: active = GI50 up to about 1.1 µM and inactive = higher.

Tests used:
Assay in all cases: growth of human tumour cells (NCI), 48 h
SF-539 = system: SF-539
SNB-19 = system: SNB-19
UO-31 = system: UO-31
HT-29 = system: HT-29
MOLT-4 = system: MOLT-4
K562 = system: K562
MCF7 = system: MCF7
SNB-75 = system: SNB-75
NCI-H460 = system: NCI-H460
OVCAR-5 = system: OVCAR-5
SR = system: SR
NCI-H522 = system: NCI-H522
U-251 = system: U-251
M14 = system: M14
NCI-H226 = system: NCI-H226
MDA-MB-231 = system: MDA-MB-231
SK-MEL-2 = system: SK-MEL-2
CAKI-1 = system: CAKI-1
HCT-15 = system: HCT-15
SK-OV-3 = system: SK-OV-3

| SMILES | GI50 (SF-539) | GI50 (SNB-19) | GI50 (UO-31) | GI50 (HT-29) | GI50 (MOLT-4) | GI50 (K562) | GI50 (MCF7) | GI50 (SNB-75) | GI50 (NCI-H460) | GI50 (OVCAR-5) | GI50 (SR) | GI50 (NCI-H522) | GI50 (U-251) | GI50 (M14) | GI50 (NCI-H226) | GI50 (MDA-MB-231) | GI50 (SK-MEL-2) | GI50 (CAKI-1) | GI50 (HCT-15) | GI50 (SK-OV-3) |
| --- | --- | --- | --- | --- | --- | --- | --- | --- | --- | --- | --- | --- | --- | --- | --- | --- | --- | --- | --- | --- |
| COc1cc(C2C(Cl)C(=O)N2NC(=O)c2ccccc2O)cc(OC)c1OC (centres undefined) | 3.5 µM (inactive) | 7.05 µM (inactive) | 7.76 µM (inactive) | 2.75 µM (inactive) | 3.01 µM (inactive) | 2.95 µM (inactive) | 2.9 µM (inactive) | > 10 µM (inactive) | 2.64 µM (inactive) | 5.96 µM (inactive) | 2.98 µM (inactive) | 2.87 µM (inactive) | 3.54 µM (inactive) | 6.31 µM (inactive) | 4.49 µM (inactive) | – | – | – | – | – |
| c1ccc(-c2sc(-c3ccccc3)c3c2C2CCC3C2)cc1 | 26 µM (inactive) | > 100 µM (inactive) | 16 µM (inactive) | 18.6 µM (inactive) | 52.4 µM (inactive) | 35.2 µM (inactive) | – | – | 28.9 µM (inactive) | 53.8 µM (inactive) | 17.4 µM (inactive) | 23.1 µM (inactive) | 38.2 µM (inactive) | 35.3 µM (inactive) | 32.5 µM (inactive) | 27.6 µM (inactive) | 19.2 µM (inactive) | 49.9 µM (inactive) | 31.6 µM | 64 µM (inactive) |
| O=C(COc1ccccc1)NS(=O)(=O)c1ccccc1 | > 100 µM (inactive) | > 100 µM (inactive) | > 100 µM (inactive) | > 100 µM (inactive) | > 100 µM (inactive) | > 100 µM (inactive) | – | > 100 µM (inactive) | > 100 µM (inactive) | > 100 µM (inactive) | > 100 µM (inactive) | > 100 µM (inactive) | > 100 µM (inactive) | > 100 µM (inactive) | > 100 µM (inactive) | – | > 100 µM (inactive) | > 100 µM (inactive) | > 100 µM | > 100 µM (inactive) |
| CC(=O)NC1=C(C)C(=O)c2c(nc3n2CCC3OC(=O)CCl)C1=O (centres undefined) | 2.73 µM (inactive) | 16.6 µM (inactive) | 18 µM (inactive) | 15.6 µM (inactive) | 1.69 µM (inactive) | 2.19 µM (inactive) | – | 16.3 µM (inactive) | 20.1 µM (inactive) | 12.9 µM (inactive) | 2.68 µM (inactive) | 3.05 µM (inactive) | 3.3 µM (inactive) | 18.2 µM (inactive) | 2.52 µM (inactive) | – | 3 µM (inactive) | 20.9 µM (inactive) | – | 16.1 µM (inactive) |
| Cc1c(C(=O)CC(=O)C(=O)Nc2cc(Cl)ccc2Cl)[n+]([O-])c2ccccc2[n+]1[O-] | 47.8 µM (inactive) | 45.5 µM (inactive) | > 100 µM (inactive) | 28.5 µM (inactive) | 26.6 µM (inactive) | 72.4 µM (inactive) | – | 33.6 µM (inactive) | 37 µM (inactive) | > 100 µM (inactive) | 28.4 µM (inactive) | 23.1 µM (inactive) | 34.8 µM (inactive) | 25.3 µM (inactive) | > 100 µM (inactive) | – | 37.9 µM (inactive) | > 100 µM (inactive) | 29 µM | > 100 µM (inactive) |
| c1csc(-c2ccc(-c3ccc(-c4ccc(-c5cccs5)s4)s3)s2)c1 | > 100 µM (inactive) | – | > 100 µM (inactive) | > 100 µM (inactive) | 31.6 µM (inactive) | 47.1 µM (inactive) | 8.36 µM (inactive) | > 100 µM (inactive) | > 100 µM (inactive) | > 100 µM (inactive) | 35.7 µM (inactive) | – | > 100 µM (inactive) | 26.9 µM (inactive) | > 100 µM (inactive) | – | – | > 100 µM (inactive) | > 100 µM | > 100 µM (inactive) |
| O=S(=O)(/C=C/c1ccc(Cl)cc1Cl)Cc1ccccc1CS(=O)(=O)/C=C/c1ccc(Cl)cc1Cl | > 100 µM (inactive) | > 100 µM (inactive) | > 100 µM (inactive) | 49.4 µM (inactive) | 88.7 µM (inactive) | 61.1 µM (inactive) | – | 6.18 µM (inactive) | 88.7 µM (inactive) | > 100 µM (inactive) | > 100 µM (inactive) | > 100 µM (inactive) | > 100 µM (inactive) | > 100 µM (inactive) | > 100 µM (inactive) | – | > 100 µM (inactive) | > 100 µM (inactive) | 46.2 µM | > 100 µM (inactive) |
| Nc1c(S(=O)(=O)c2ccccc2)c2nc3ccccc3nc2n2c1nc1ccccc12 | 11.1 µM (inactive) | > 51.8 µM (inactive) | > 100 µM (inactive) | > 84.1 µM (inactive) | > 29.4 µM (inactive) | 22.4 µM (inactive) | – | 7.83 µM (inactive) | 34.3 µM (inactive) | > 100 µM (inactive) | > 71.6 µM (inactive) | 36.5 µM (inactive) | 24.7 µM (inactive) | 16.2 µM (inactive) | 37.5 µM (inactive) | – | > 55.3 µM (inactive) | > 54.1 µM (inactive) | 36.1 µM | > 100 µM (inactive) |
| CCOC(=O)C12CCCC1(O)N(NC(=O)c1cccc(Cl)c1)C(C)=C2C(=O)OC (centres undefined) | > 100 µM (inactive) | > 100 µM (inactive) | > 100 µM (inactive) | > 100 µM (inactive) | 55.7 µM (inactive) | 96.6 µM (inactive) | – | 34.5 µM (inactive) | > 100 µM (inactive) | > 100 µM (inactive) | 53 µM (inactive) | 40.5 µM (inactive) | > 100 µM (inactive) | > 100 µM (inactive) | > 100 µM (inactive) | – | > 100 µM (inactive) | > 100 µM (inactive) | > 100 µM | > 100 µM (inactive) |
| CC1(C)/C(=N\NC(N)=O)C2CCC1C2 (centres undefined) | – | > 100 µM (inactive) | > 100 µM (inactive) | > 100 µM (inactive) | > 100 µM (inactive) | > 100 µM (inactive) | > 100 µM (inactive) | > 100 µM (inactive) | > 100 µM (inactive) | > 100 µM (inactive) | > 100 µM (inactive) | > 100 µM (inactive) | > 100 µM (inactive) | > 100 µM (inactive) | > 100 µM (inactive) | – | > 100 µM (inactive) | > 100 µM (inactive) | > 100 µM | > 100 µM (inactive) |
| CCCCCCCCCCCCCCCCOP(=O)(O)OCC(N)C(=O)O (centres undefined) | 21.3 µM (inactive) | 16.4 µM (inactive) | 12.9 µM (inactive) | 33 µM (inactive) | 11.5 µM (inactive) | 22.8 µM (inactive) | – | 25.4 µM (inactive) | 17.1 µM (inactive) | 20.4 µM (inactive) | 33 µM (inactive) | 20.3 µM (inactive) | 12.9 µM (inactive) | 24.8 µM (inactive) | 21 µM (inactive) | 24.7 µM (inactive) | 19.3 µM (inactive) | 13 µM (inactive) | 27.7 µM | 21.8 µM (inactive) |
| COc1cc(C2c3cc4c(cc3C(=O)C3CCC(=O)N32)OCO4)cc(OC)c1O (centres undefined) | > 50 µM (inactive) | > 50 µM (inactive) | > 50 µM (inactive) | > 50 µM (inactive) | > 50 µM (inactive) | > 50 µM (inactive) | > 50 µM (inactive) | > 50 µM (inactive) | > 50 µM (inactive) | > 50 µM (inactive) | > 50 µM (inactive) | – | > 50 µM (inactive) | > 50 µM (inactive) | > 50 µM (inactive) | – | > 50 µM (inactive) | – | > 50 µM | > 50 µM (inactive) |
| CC(=O)C1CCN(c2ccccc2)C1 (centres undefined) | > 100 µM (inactive) | > 100 µM (inactive) | > 100 µM (inactive) | > 100 µM (inactive) | > 100 µM (inactive) | > 100 µM (inactive) | – | > 100 µM (inactive) | > 100 µM (inactive) | > 100 µM (inactive) | > 100 µM (inactive) | > 100 µM (inactive) | > 100 µM (inactive) | > 100 µM (inactive) | > 100 µM (inactive) | – | > 100 µM (inactive) | > 100 µM (inactive) | – | > 100 µM (inactive) |
| O=[N+]([O-])/C(C(Cl)=C(Cl)Cl)=C(/Nc1ccccc1)SCc1ccccc1 | 23.4 µM (inactive) | 25.2 µM (inactive) | 20.8 µM (inactive) | 29.6 µM (inactive) | 17 µM (inactive) | 24 µM (inactive) | – | – | 19.8 µM (inactive) | 20 µM (inactive) | 22.3 µM (inactive) | 23.3 µM (inactive) | 20.1 µM (inactive) | 16.9 µM (inactive) | 21.2 µM (inactive) | 19.9 µM (inactive) | 19.4 µM (inactive) | 31.9 µM (inactive) | 14.4 µM | 52 µM (inactive) |
| O=C(O)c1ccc(Nc2nc3ccccc3nc2-c2cccs2)cc1 | > 100 µM (inactive) | – | 63.5 µM (inactive) | 66.4 µM (inactive) | > 100 µM (inactive) | 45.5 µM (inactive) | – | 66.1 µM (inactive) | 71 µM (inactive) | > 100 µM (inactive) | 65.9 µM (inactive) | 91.4 µM (inactive) | 95.9 µM (inactive) | – | > 100 µM (inactive) | > 100 µM (inactive) | – | 63.5 µM (inactive) | 68.7 µM | > 100 µM (inactive) |
| COc1ccc(N2C(=O)C(=O)N(c3ccccc3[N+](=O)[O-])C2=S)cc1 | 30.1 µM (inactive) | 44.6 µM (inactive) | 34 µM (inactive) | 33.8 µM (inactive) | 34.8 µM (inactive) | 32.1 µM (inactive) | – | 27.1 µM (inactive) | 34.3 µM (inactive) | 22.4 µM (inactive) | 47.3 µM (inactive) | 10.7 µM (inactive) | 37.8 µM (inactive) | – | 28.2 µM (inactive) | 20.4 µM (inactive) | 14.6 µM (inactive) | 40 µM (inactive) | 18.2 µM | 25.1 µM (inactive) |
